Molecules are shown by their SMILES. Where two headings read alike, the source gives them in different places.

This is an account of results in US8785488B2 (Exelixis Patent Company LLC, priority 2009, dated 2014).

This assay addresses T1, human TGR5 (h-TGR5) (Homo sapiens, UniProt Q8TDU6).
T1 construct: expressed in transfected cells
T1 sequence (Q8TDU6 1-330): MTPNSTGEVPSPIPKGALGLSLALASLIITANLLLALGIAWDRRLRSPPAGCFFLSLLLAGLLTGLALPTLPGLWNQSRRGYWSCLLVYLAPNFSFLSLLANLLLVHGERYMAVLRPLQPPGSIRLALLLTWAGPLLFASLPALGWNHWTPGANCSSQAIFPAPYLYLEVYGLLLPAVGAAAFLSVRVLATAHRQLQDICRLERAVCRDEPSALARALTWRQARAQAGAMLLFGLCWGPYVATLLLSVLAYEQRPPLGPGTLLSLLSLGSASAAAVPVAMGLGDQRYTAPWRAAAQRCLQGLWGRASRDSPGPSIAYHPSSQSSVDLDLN
As to the kind of experiment: TGR5/CRE-Luciferiase Assay (HEK 293 hTGR5/CRE-Luc cells). The format is cell-based. A digest of the protocol: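 HEK293 cells stably carrying hTGR5 and a CRE-luciferase reporter were exposed to serially diluted compounds (diluted in DMEM with 5% DMSO) for 6 h. Cells were then lysed in luciferase buffer, luminescence was read, and EC50 values were derived from dose-response curves.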

The mark [1] stands for this setting: h-TGR5 CRE-Luc EC50, Table 1, read-out: CRE-Luc (EC50).
Setting [2] is: HEK 293 hTGR5/CRE-Luc cells, 6 hours incubation, luciferase activity, Table 2, read-out: h-TGR5CRE-Luc EC50 (CRE-Luc).

What is called EC50 is the concentration needed to bring the measured effect to its halfway point. Consider `CC(C)(c1ccc(Cl)c(Cl)c1)c1cnc(SCc2ccc(F)cc2C(N)=O)n1-c1ccc(F)cc1` [2-[({5-[1-(3,4-dichlorophenyl)-1-methylethyl]-1-(4-fluorophenyl)-1H-imidazol-2-yl}thio)methyl]-5-fluorobenzamide], for which the EC50 under setting [1] was in the range of 100 to 1000 nM.

As for `CC(C)(c1ccc(Cl)c(Cl)c1)c1cnc(SCc2c(F)cc(C(=O)O)cc2F)n1-c1ccc(F)c(CO)c1` [4-[({5-[1-(3,4-dichlorophenyl)-1-methylethyl]-1-[4-fluoro-3-(hydroxymethyl)phenyl]-1H-imidazol-2-yl}thio)methyl]-3,5-difluorobenzoic acid], the EC50 under setting [1] lay in the range of 100 to 1000 nM. Regarding `COc1ccc(C(C)(C)c2cnc(SCc3ccc(Cl)cc3Cl)n2-c2ccc(F)cc2)cc1OC` [5-{1-[3,4-bis(methyloxy)phenyl]-1-methylethyl}-2-{[(2,4-dichlorophenyl)methyl]thio}-1-(4-fluorophenyl)-1H-imidazole], the EC50 under setting [1] was less than 100 nM. Same read-out and setting: the result for `CC(C)(c1ccc(Cl)c(Cl)c1)c1cnc(C2=CCN(S(C)(=O)=O)CC2)n1-c1ccc(F)cc1` [4-{5-[1-(3,4-dichlorophenyl)-1-methylethyl]-1-(4-fluorophenyl)-1H-imidazol-2-yl}-1-(methylsulfonyl)-1,2,3,6-tetrahydropyridine] reads 1000 to 10000 nM; that for `CC(C)(c1ccc(S(C)(=O)=O)cc1)c1cnc(SCc2ccc(S(=O)(=O)NC(=O)NN3CCCC3)cc2Cl)n1-c1ccc(F)cn1` [3-chloro-4-({[1-(5-fluoropyridin-2-yl)-5-{1-methyl-1-[4-(methylsulfonyl)phenyl]ethyl}-1H-imidazol-2-yl]thio}methyl)-N-[(pyrrolidin-1-ylamino)carbonyl]benzenesulfonamide], 1000 to 10000 nM; that for `CC(C)(c1ccc(Cl)c(Cl)c1)c1cnc(C2CCN(C(=O)NN3CCCC3)CC2)n1-c1ccc(F)cc1` [4-{5-[1-(3,4-dichlorophenyl)-1-methylethyl]-1-(4-fluorophenyl)-1H-imidazol-2-yl}-N-pyrrolidin-1-ylpiperidine-1-carboxamide], 1000 to 10000 nM. Same read-out and setting: to `CC(C)(C(=O)O)c1cc(CSc2ncc(C(C)(C)c3ccc(Cl)c(Cl)c3)n2-c2ccc(F)cc2)ccc1F` [2-{5-[({5-[1-(3,4-dichlorophenyl)-1-methylethyl]-1-(4-fluorophenyl)-1H-imidazol-2-yl}thio)methyl]-2-fluorophenyl}-2-methylpropanoic acid] belongs 1000 to 10000 nM; to `CC(C)(c1ccc(Cl)c(Cl)c1)c1cnc(COc2ccc(Cl)cn2)n1-c1ccc(F)cc1` [5-chloro-2-[({5-[1-(3,4-dichlorophenyl)-1-methylethyl]-1-(4-fluorophenyl)-1H-imidazol-2-yl}methyl)oxy]pyridine], 100 to 1000 nM.

For `CC(C)(c1ccc(F)c(F)c1)c1cnc(SCc2c(F)cccc2Cl)n1-c1ccc(F)cc1` [2-{[(2-chloro-6-fluorophenyl)methyl]thio}-5-[1-(3,4-difluorophenyl)-1-methylethyl]-1-(4-fluorophenyl)-1H-imidazole], the concentration giving a half-maximal response (EC50) under setting [1] is less than 100 nM. For the compound `CC(C)(c1ccc2cccnc2c1)c1nnc(SCc2c(F)cc(C(=O)O)cc2F)n1-c1ccc(F)cc1` [Example 50], the EC50 under setting [2] is 1000 to 10000 nM. As for `CC(C)(c1ccc(Cl)c(Cl)c1)c1cnc(SCc2ccc(C(=O)NCCN3CCOCC3)cc2F)n1-c1ccc(F)cc1` [4-[({5-[1-(3,4-dichlorophenyl)-1-methylethyl]-1-(4-fluorophenyl)-1H-imidazol-2-yl}thio)methyl]-3-fluoro-N-(2-morpholin-4-ylethyl)benzamide], under setting [1], the EC50 is 100 to 1000 nM.

Turning to `CC(C)(c1ccc(F)c(F)c1)c1cnc(SCc2ccc(F)c(C(=O)O)c2)n1-c1ccc(F)cc1` [5-[({5-[1-(3,4-difluorophenyl)-1-methylethyl]-1-(4-fluorophenyl)-1H-imidazol-2-yl}thio)methyl]-2-fluorobenzoic acid], the EC50 under setting [1] was 100 to 1000 nM. On the same count and under the same terms, to `CC(C)(c1ccc(S(C)(=O)=O)cc1)c1cnc(SCc2c(F)cc(C(=O)O)cc2F)n1-c1ccc(F)c(F)c1` [4-({[1-(3,4-difluorophenyl)-5-{1-methyl-1-[4-(methylsulfonyl)phenyl]ethyl}-1H-imidazol-2-yl]thio}methyl)-3,5-difluorobenzoic acid] belongs 1000 to 10000 nM; to `CC(C)(c1ccc(Cl)cc1)c1cnc(SCc2c(F)cccc2Cl)n1-c1ccc(F)cc1` [2-{[(2-chloro-6-fluorophenyl)methyl]thio}-5-[1-(4-chlorophenyl)-1-methylethyl]-1-(4-fluorophenyl)-1H-imidazole], 100 to 1000 nM; to `CC(C)(c1ccc(Cl)c(Cl)c1)c1cnc(SCc2c(F)cccc2Cl)n1-c1ccc(Cl)c(Cl)c1` [2-{[(2-chloro-6-fluorophenyl)methyl]thio)-1-(3,4-dichlorophenyl)-5-[1-(3,4-dichlorophenyl)-1-methylethyl]-1H-imidazole], 100 to 1000 nM. Consider `COc1ccc(C(C)(C)c2cnc(S(=O)(=O)Cc3c(F)cccc3Cl)n2-c2ccc(F)cc2)cc1OC` [5-{1-[3,4-bis(methyloxy)phenyl]-1-methylethyl}-2-{[(2-chloro-6-fluorophenyl)methyl]sulfonyl}-1-(4-fluorophenyl)-1H-imidazole], for which, under setting [1], the EC50 is less than 100 nM. Regarding `COc1ccc(C(C)(C)c2cnc(S(=O)(=O)CCc3ccc(Cl)c(Cl)c3)n2-c2ccc(F)cc2)cc1OC` [5-{1-[3,4-bis(methyloxy)phenyl]-1-methylethyl}-2-{[2-(3,4-dichlorophenyl)ethyl]sulfonyl}-1-(4-fluorophenyl)-1H-imidazole], the EC50 under setting [1] is less than 100 nM.

Take `CC(C)(O)c1cccc(F)c1CSc1ncc(C(C)(C)c2ccc(Cl)c(Cl)c2)n1-c1ccc(F)cc1` [2-{2-[({5-[1-(3,4-dichlorophenyl)-1-methylethyl]-1-(4-fluorophenyl)-1H-imidazol-2-yl}thio)methyl]-3-fluorophenyl}propan-2-ol]: the EC50 under setting [1] was in the range of 100 to 1000 nM. Turning to `COc1cc(C(C)(C)c2cnc(SCC3CCN(CCO)CC3)n2-c2ccc(F)cc2)ccc1Cl` [2-[4-({[5-{1-[4-chloro-3-(methyloxy)phenyl]-1-methylethyl}-1-(4-fluorophenyl)-1H-imidazol-2-yl]thio}methyl)piperidin-1-yl]ethanol], under setting [1], the EC50 was 1000 to 10000 nM. In the case of `CC(C)(c1ccc(Cl)c(Cl)c1)c1cnc(CSc2ccc(Cl)c(Cl)c2)n1-c1ccc(F)cc1` [5-[1-(3,4-dichlorophenyl)-1-methylethyl]-2-{[(3,4-dichlorophenyl)thio]methyl}-1-(4-fluorophenyl)-1H-imidazole], the half-maximal effective concentration (EC50) under setting [1] lay in the range of 100 to 1000 nM. As to `CC(C)(c1ccc(Cl)c(Cl)c1)c1cnc(SCc2ccc(F)c(C(=O)NCC(F)(F)F)c2)n1-c1ccc(F)cc1` [5-[({5-[1-(3,4-dichlorophenyl)-1-methylethyl]-1-(4-fluorophenyl)-1H-imidazol-2-yl}thio)methyl]-2-fluoro-N-(2,2,2-trifluoroethyl)benzamide], under setting [1], the EC50 fell in the range of 100 to 1000 nM. `CC(C)(c1ccc(Cl)c(Cl)c1)c1cnc(SCc2ccc(F)cc2Cl)n1-c1ccc(F)cc1` [2-{[(2-chloro-4-fluorophenyl)methyl]thio}-5-[1-(3,4-dichlorophenyl)-1-methylethyl]-1-(4-fluorophenyl)-1H-imidazole]: the EC50 under setting [1] fell in the range of 100 to 1000 nM. With `CC(C)(C(=O)O)c1ccc(CSc2ncc(C(C)(C)c3ccc(Cl)c(Cl)c3)n2-c2ccc(F)cc2)c(F)c1` [2-{4-[({5-[1-(3,4-dichlorophenyl)-1-methylethyl]-1-(4-fluorophenyl)-1H-imidazol-2-yl}thio)methyl]-3-fluorophenyl}-2-methylpropanoic acid], the EC50 under setting [1] fell in the range of 100 to 1000 nM. Take `CC(C)(Oc1cc(CSc2ncc(C(C)(C)c3ccc(Cl)c(Cl)c3)n2-c2ccc(F)cc2)ccc1F)C(=O)O` [2-({5-[({5-[1-(3,4-dichlorophenyl)-1-methylethyl]-1-(4-fluorophenyl)-1H-imidazol-2-yl}thio)methyl]-2-fluorophenyl}oxy)-2-methylpropanoic acid]: under setting [1], the EC50 fell in the range of 100 to 1000 nM.

For `CC(C)(c1ccc(Cl)c(Cl)c1)c1cnc(CCc2ccc(S(=O)(=O)NC(=O)NN3CCCC3)cc2Cl)n1-c1ccc(F)cc1` [3-chloro-4-(2-{5-[1-(3,4-dichlorophenyl)-1-methylethyl]-1-(4-fluorophenyl)-1H-imidazol-2-yl}ethyl)-N-[(pyrrolidin-1-ylamino)carbonyl]benzenesulfonamide], the EC50 under setting [1] was 1000 to 10000 nM. The same measure, in the same setting: the result for `CC(C)(c1ccc(Cl)c(Cl)c1)c1cnc(SCc2ccc(C(=N)N)c(Cl)c2)n1-c1ccc(F)cc1` [2-chloro-4-[({5-[1-(3,4-dichlorophenyl)-1-methylethyl]-1-(4-fluorophenyl)-1H-imidazol-2-yl}thio)methyl]benzenecarboximidamide] reads 1000 to 10000 nM; that for `CC(C)(c1ccc(Cl)c(Cl)c1)c1cnc(SCc2ccc(C(N)=O)cc2Cl)n1-c1ccc(F)cc1` [3-chloro-4-[({5-[1-(3,4-dichlorophenyl)-1-methylethyl]-1-(4-fluorophenyl)-1H-imidazol-2-yl}thio)methyl]benzamide], 100 to 1000 nM.

Take `CC(C)(c1ccc(Cl)c(Cl)c1)c1cnc(SCc2ccc(F)cc2Cl)n1-c1ccc(F)c(F)c1` [2-{[(2-chloro-4-fluorophenyl)methyl]thio}-5-[1-(3,4-dichlorophenyl)-1-methylethyl]-1-(3,4-difluorophenyl)-1H-imidazole]: the EC50 under setting [1] was in the range of 100 to 1000 nM. Turning to `CC(C)(c1ccc(Cl)cc1)c1nnc(SCc2ccc(F)cc2Cl)n1-c1ccc(F)cc1` [Example 6], the EC50 under setting [2] lay within 1000 to 10000 nM.
